The record followed here is US5115096A, “Amphiregulin: a bifunctional growth modulating glycoprotein” (Oncogen, priority 1989, dated 1992).

Common to all, as to type: cell-based, human
The test system of series [1] is AR RNA in MCF-7 (HTB 22) cells. The series is described as follows: Northern blot of AR RNA in MCF-7 cells. From the text: c-AMP is another regulatory molecule which exerts diverse effects on cells, primarily through cAMP-dependent protein kinase A. Intracellular levels of cAMP are regulated by a combination of receptor-mediated activation and adenylate cyclase inhibition. Some studies indicate that TPA and cAMP induced gene expression may converge as a common pathway. To study the regulation of AR gene expression, we chose to look at the effect of various activators or inhibitors of both these regulatory pathways on the production of AR specific RNA in MCF-7 cells.
Forskolin is a drug which activates adenylate cyclase, resulting in increased intracellular cAMP.
Ten or twenty μg of total RNA was electrophoresed on 1.2% agarose/formaldehyde gels for Northern analysis. The agarose/formaldehyde gels were prepared in 40 mM N-morpholinopropanesulfonic acid (MOPS), pH 7.0/1 mM EDTA/10 mM sodium acetate/2/2 M deionized formaldehyde (pH5.6) in an IBI VCV gel apparatus with frosted plates. RNA was denatured in the same buffer with 50% formamide at 65° C., and run in 1×MOPS, at 20-30 mA for 3-5 hr. […] Bands were scored as (+) if clearly visible after overnight exposure, (+/-) if visible after 3 day exposure, and (++) if detectable after 6 hr. […]

The test system of a further series is MCF-7 cells. The series is described as follows: Morphology and cell number of MCF-7 cells. As to conditions: MCF-7 cells compared to untreated cells. From the text: TPA induces dramatic morphological changes in a dose-dependent manner. Following TPA treatment, MCF-7 cells lose their well defined morphology, become rounded, and spread out.
Series [2] has as its system transcription of AR in MCF-7 cells. Nature of the series: Nuclear run-off, transcription of AR. As to conditions: in response to TPA.
For series [3], the system named is AR 5' flanking region driving CAT gene in MCF-7 cells. The series is described as follows: CAT assay, AR 5' regulatory region/CAT constructs transiently introduced into MCF-7 cells. As for the experimental part:
MCF-7 cells were grown as described in Section 6.2.1 supra. For each assay, 1-2×10^6 cells were plated in a 100 mm dish in 10 ml media, and 24 hours later, 20 μg calcium phosphate precipitated supercoiled plasmid DNA was added to the cells (Southern and Berg, 1982). The cells were rinsed with fresh media 4 hours after transfection and subjected to a 25% glycerol shock for 90 seconds. Cells were again rinsed and overlayed with 20 ml fresh media containing 0 or 100ng/ml TPA. Cells were washed and harvested 40 hours after glycerol shock and lysed by sonication in 100 μl 1 0.25 M Tris-HCl (pH 7.8). CAT activity was assayed essentially as detailed by Gorman et al. (1982). Cell extract (3-50 μl) was added to […] ^14 C-chloramphenicol (NEN), in a 150 μl reaction volume of 0.5 M Tris (pH 7.8), 0.5 mM AcetylCoA. The reactions were incubated at 37° C. for 2 hours, extracted with 1 ml ethyl acetate and developed on silica gel TLC plates with CHCl3 :1-butanol (95:5). TLC plates were dried and autoradiographed. The acetylated and unacetylated ^14 C-chloramphenicol was quantitated by counting excised spots in Optifluor. Units of CAT enzymatic activity were calculated as μg chloramphenicol acetylated per hour per μg protein in the cell extract.
Primer extension was performed on MCF-7 RNA with 2 separate oligonucleotides from exon 1. […]

In series [4] the test system is AR RNA in SK-BR-3 (HTB 30) cells. Nature of the series: Northern blot of AR RNA, tumor cell line panel. Also on record: key: +: clearly visible after overnight exposure; +/-: visible after 3 day exposure; ++: detectable after 6 hr. The note with it: 24 hour induction with TPA. Here is the method: (§1) Ten or twenty μg of total RNA was electrophoresed on 1.2% agarose/formaldehyde gels for Northern analysis. The agarose/formaldehyde gels were prepared in 40 mM N-morpholinopropanesulfonic acid (MOPS), pH 7.0/1 mM EDTA/10 mM sodium acetate/2/2 M deionized formaldehyde (pH5.6) in an IBI VCV gel apparatus with frosted plates. RNA was denatured in the same buffer with 50% formamide at 65° C., and run in 1×MOPS, at 20-30 mA for 3-5 hr. The gel was rinsed in 10×SSC for 30 min and transferred to Hybond-N membranes (Amersham), UV-crosslinked (1200 μJoules), prehybridized and hybridized in 5×SSPE (1×SSPE is 0.18 M NaCl/10 mM sodium phosphate, pH 7.7, 0.1 mM EDTA), 5×Denhardt's, 0.5% SDS, and 20 μg/ml denatured salmon sperm DNA as carrier. Hybridizations were carried out at 42° C. for 16 hr with 2×10^6 cpm/ml of the ^ 32 P-ARBP1. Blots were washed several times in 2×SSC with 0.1% SDS at room temperature followed by 1×SSC/0.1% SDS, 65° C., and exposed on Kodak X-OMAT with two Dupont Lightning Plus intensifying screens at -70° C. Bands were scored as (+) if clearly visible after overnight exposure, (+/-) if visible after 3 day exposure, and (++) if detectable after 6 hr.
(§2) A panel of tumor cell lines was tested for AR RNA levels both before and after 24 hour induction with TPA. With but a few exceptions, the only sources of detectable AR RNA were in human breast cancer lines treated with TPA.

The subject of series [5] is AR RNA in HUF foreskin fibroblast cells. Nature of the series: Northern blot of AR RNA, tumor cell line panel. Also on record: key: +: clearly visible after overnight exposure; +/-: visible after 3 day exposure; ++: detectable after 6 hr. The note with it: 24 hour induction with TPA. Here is the method: as §1, §2
The test system of series [6] is AR RNA in HBL-100 (HTB 124) cells. The series is described as follows: Northern blot of AR RNA, tumor cell line panel. Details: key: +: clearly visible after overnight exposure; +/-: visible after 3 day exposure; ++: detectable after 6 hr. As to conditions: 24 hour induction with TPA. Here is the method: as §1, §2
Series [7] has as its system AR RNA in JEG-3 (HTB 36) cells. The series is described as follows: Northern blot of AR RNA, tumor cell line panel. As to conditions: 24 hour induction with TPA. Details: key: +: clearly visible after overnight exposure; +/-: visible after 3 day exposure; ++: detectable after 6 hr. Here is the method:
as §1, §2

Series [8] has as its system AR RNA in MDA-MB-157 (HTB 24) cells. The series is described as follows: Northern blot of AR RNA, tumor cell line panel. Details: key: +: clearly visible after overnight exposure; +/-: visible after 3 day exposure; ++: detectable after 6 hr. As to conditions: 24 hour induction with TPA. Here is the method:
as §1, §2

For series [9], the system named is AR RNA in BT-474 (HTB 20) cells. The series is described as follows: Northern blot of AR RNA, tumor cell line panel. Details: key: +: clearly visible after overnight exposure; +/-: visible after 3 day exposure; ++: detectable after 6 hr. The note with it: 24 hour induction with TPA. As for the experimental part: as §1, §2
In series [10] the test system is AR RNA in HEPM (CRL 1486) cells. The series is described as follows: Northern blot of AR RNA, tumor cell line panel. Also on record: key: +: clearly visible after overnight exposure; +/-: visible after 3 day exposure; ++: detectable after 6 hr. As to conditions: 24 hour induction with TPA. Here is the method:
as §1, §2

The subject of series [11] is AR RNA in MDA-MB-361 (HTB 27) cells. The series is described as follows: Northern blot of AR RNA, tumor cell line panel. Also on record: key: +: clearly visible after overnight exposure; +/-: visible after 3 day exposure; ++: detectable after 6 hr. The note with it: 24 hour induction with TPA. As for the experimental part:
as §1, §2

In the next series the test system is AR RNA in BT-476 cells. Nature of the series: Northern blot of AR RNA, tumor cell line panel. Also on record: key: +: clearly visible after overnight exposure; +/-: visible after 3 day exposure; ++: detectable after 6 hr. As to conditions: BT-476, 24 hour induction with TPA. As for the experimental part: as §1, §2

SMILES strings stand for the structures. Where two headings read alike, the source gives them in different places.

As to `C=C[C@@]1(C)CC(=O)[C@]2(O)[C@@]3(C)[C@@H](O)CCC(C)(C)[C@@H]3[C@H](O)[C@H](OC(C)=O)[C@@]2(C)O1` [Forskolin], the “AR mRNA” value in [1] (MCF-7 cells, 25 uM for 4 hours) was “marked stimulation”.

As to `CCCCCCCCCCCCCC(=O)O[C@@H]1[C@@H](C)[C@@]2(O)[C@@H](C=C(CO)C[C@]3(O)C(=O)C(C)=C[C@@H]23)[C@@H]2C(C)(C)[C@]12OC(C)=O` [TPA, 12-0-tetradecanoyl-phorbol-13-acetate], in series [1] (MCF-7 cells treated with TPA for 0-48 hours), the “time after treatment at which increase in the 1.4 kb AR RNA species was seen” value was ≤ 1 h. In the series with MCF-7 cells, the “effect on cell number” value was “dose-dependent reduction in cell number”. In series [2], the “increased transcription of AR” value is listed as 3-5 fold. The fold induction at 0.1 µg/mL lay within 6 to 7 in [3] (MCF7, 40 h, pXARE1CAT (-648 to +40) in MCF-7 cells, addition of TPA, read-out: stimulation of CAT activity) and 3.5 to 7 in [3] (MCF7, deletion mutants E1a-E1h in MCF-7 cells, 40 hour treatment with 100 ng/ml TPA, read-out: enhanced expression of 5' CAT deletion constructs). Besides, the “AR RNA Level, TPA INDUCED” value in series [4] is reported as “+”; in series [5] it was “+/-”; in [6], “+”; in series [7], “+/-”; in series [8], “++”; in [9] it was “+”. In addition, the “AR RNA Level, TPA INDUCED” value in [10] was “+/-”; in series [11] it was “++”; with AR RNA in BT-476 cells, “+”.
